Measured values taken from patent US20120122716A1, “CELL LINE DERIVED FROM THE EPITHELIAL LINING OF THE HUMAN ENDOLYMPHATIC SAC IN THE INNER EAR” (priority 2010, published 2012).

What was measured:
AQP2 = assay: RT-PCR analysis of AQP2 expression in ES cells; format: cell-based; settings: immortalized human ES epithelial cells
From the text: The inner ear can function properly only if the chemical equilibrium and volume of inner ear fluids are maintained. The disruption of inner ear homeostasis results in many inner ear disorders such as Meniere's disease. The endolymphatic sac (ES) is believed to be involved in homeostasis of endolymph such as ion and fluid regulation. Aquaporins (AQPs) function like a molecular water valve, allowing water to move along a specific direction. AQP1, 2, 3, 4, and 6 are all found in the ES and may have an important role in endolymph fluid homeostasis. […] Taken together, our findings indicate that ES epithelial cells are invovled in homeostasis of endolymph through regulation of AQP2 and AQP3. We believe that our ES cell line will provide an in vitro model enabling us to better understand the molecular pathogeneis of Meniere's disease.

ES cells = assay: Water permeability of ES cells (fluorescence-quenching assay); format: cell-based; settings: immortalized human ES epithelial cells
Method: For water permeability measurement, an ES cell line is plated in 96-well clear bottom of black-walled microplates (Costar) at a density of 20000 cells per well in F-12 Ham's medium supplemented with 10% FBS and 0.5 mg/mL G418. After incubation at 37° C. in an atmosphere containing 5% CO2 with 90% humidity for 18 h, the cells in 96-well plates are washed twice in PBS buffer (200 μL/wash), leaving 100 μL PBS after the last wash. Measurement is performed on a FLUOstar Optima plate reader (BMG Technology) equipped with syringe pumps and excitation and emission filters. Cells in each well of the plate are assayed individually for osmotically driven (e.g., aquaporin-mediated), water influx across the plasma membrane that dilutes the cytoplasmic Cl^− by recording fluorescence increase continuously (0.2 s per point) for 2 s (baseline) and then for 21 s (water transport into the cells) after rapid injection (<1 s) of 100 μL distilled water. Water permeability is expressed as half time (t1/2) from water injection to the point when the cytoplasmic fluorescence reaches the maximum. A smaller t1/2 represents a higher water permeability.
The inner ear can function properly only if the chemical equilibrium and volume of inner ear fluids are maintained. The disruption of inner ear homeostasis results in many inner ear disorders such as Meniere's disease. […]

HESC-1 cells = assay: Secretion of viscous substance by HESC-1 cells; format: cell-based, human
From the text: For example, viscosity of the substance derived from the cells can be measured using an Ubbelohde viscometer (VWR) after collection of the supernatant. Osmolality of the substance can be measured using a freezing point osmometer (Precision Systems, Natick, MA). To determine the factors influencing secretion of osmotically active and viscous substances, the cells can be cultured using a serum-free medium with deficiency of a specific factor such as retinoic acid, hydrocortisone and triiodothronine.
(§1) Regulatory mechanisms involved in secretion and biological functions of these molecules can be determined. The HESC-1 cells provides a basis for an in vitro model for the studies of secretory function of the ES.

[1] = tested on: mucin core proteins and hyaluronic acid synthases; assay: qRT-PCR analysis of mucin core proteins and hyaluronic acid synthases in HESC-1 cells; format: cell-based, human
From the text: We identified hyaluronic acid among the osmotically active substances derived from our ES cell line. Three isoforms of hyaluronic acid synthases (HASs) are identified in humans. For example, transcriptional regulation of each HAS can be determined using real-time quantitative RT-PCR analysis after extraction of total RNAs from the ES cell line. Protein levels of each HAS can be measured using immunobloting after extraction of total proteins from the ES cell line. To determine the factors regulating each HAS, the cells can be cultured using a serum-free medium with deficiency of a specific factor such as retinoic acid, hydrocortisone and triiodothronine.
as §1

Molecule	AQP2 expression (RT-PCR) (AQP2)	water permeability of ES cells upon exposure (ES cells)	secretion of viscous substance (HESC-1 cells)	expression of mucin core proteins and hyaluronic acid synthases (qRT-PCR) [1]
NC(=O)CC[C@@H]1NC(=O)[C@H](Cc2ccccc2)NC(=O)[C@H](Cc2ccc(O)cc2)NC(=O)[C@@H](N)CSSC[C@@H](C(=O)N2CCC[C@H]2C(=O)N[C@@H](CCCN=C(N)N)C(=O)NCC(N)=O)NC(=O)[C@H](CC(N)=O)NC1=O [vasopressin]	up-regulation	affected	–	–
EGF: human epidermal growth factor (EGF) (NSDSECPLSHDGYCLHDGVCMYIEALDKYACNCVVGYIGERCQYRDLKWWELR; UniProt P01133 971-1023, looked up)	–	–	secrete viscous substance	up-regulate
